# Source: patent US20250090528A1, “USE OF COMPLEMENT FACTOR D INHIBITOR FOR TREATMENT OF LUPUS NEPHRITIS AND IMMUNOGLOBULIN A NEPHROPATHY” (Alexion Pharmaceuticals, Inc., priority 2021, published 2025)
# Read-outs that look alike come from different tables or passages of the source.
# Tests used:
# [1] = tested on: alternative pathway (AP) activity; test: PD activity: AP inhibition in the AP Wieslab assay after multiple-dose administration in healthy participants; type: in vivo, human
# Procedure: The 120 mg BID dosing regimen provided sustained AP inhibition (AP activity <10%) in healthy participants whose ALXN2050 concentrations achieved the 90% inhibitory concentration (IC90) threshold through the 12-hour dosing periods. Therefore, 120 mg BID is selected as the minimum therapeutic dose. […] Therefore, the 180 mg BID is selected as the likely therapeutic dose.
# (§1) In addition, both dosage regimens provided complete (>90%) and sustained inhibition of AP activity throughout the 12-hour dosing interval. Therefore, 120 mg BID is selected as the minimum therapeutic dosage.
# [2] = Multiple ascending dose study: safety and safety margin versus NOAEL exposures from nonclinical chronic toxicology studies; type: in vivo, human; settings: 120 and 200 mg BID
# Procedure: as §1
# [3] = Single-ascending and multiple-ascending dose clinical PK studies in healthy volunteers; type: in vivo, human
# Source text: Clinical pharmacokinetics (PK) and PD data have been generated for ALXN2050 in single-ascending and multiple-ascending dose studies in healthy volunteers.
# lupus nephritis = settings: LN patients, cited from earlier work
# [4] = NOAEL from nonclinical chronic toxicology studies
compound,measurement,setting,value
CC(=O)c1nn(CC(=O)N2[C@H](C(=O)Nc3nc(Br)ccc3C)C[C@@]3(C)C[C@@H]23)c2ccc(-c3cnc(C)nc3)cc12 [ALXN2050],inhibition of AP activity (complete and sustained),"[1]; 120 and 200 mg BID, throughout the 12-hour dosing interval",> 90%
same,activity at 120 mg,"[1]; Homo sapiens, 120 mg BID, participants whose concentrations achieved the IC90 threshold through the 12-hour dosing periods, read-out: AP activity (sustained AP inhibition)",< 10%
same,PD activity (AP inhibition in the AP Wieslab assay),"[1]; multiple-dose 40 mg BID to 200 mg BID, healthy participants",increased with increasing dose
same,safety and efficacy of dose regimens,[2]; multiple ascending dose study,safe and effective
same,safety margin in AUC0-24 versus exposures at NOAEL,[2]; [4],≥ 10 fold
same,safety margin in maximum plasma concentration (Cmax) versus exposures at NOAEL,[2]; [4],≥ 10 fold
same,intersubject variability in PK,[3],Large intersubject variability
same,increase in systemic exposure with dose,"[3]; multiple-dose administration at steady state (Days 7 and 14), 40 mg BID to 200 mg BID",greater than dose-proportional increase
same,increase in systemic exposure with dose,[3]; single-dose administration,dose-proportional increase
C=C/C=C/C[C@@H](C)[C@@H](O)[C@H]1C(=O)N[C@@H](CC)C(=O)N(C)CC(=O)N(C)[C@@H](CC(C)C)C(=O)N[C@@H](C(C)C)C(=O)N(C)[C@@H](CC(C)C)C(=O)N[C@@H](C)C(=O)N[C@H](C)C(=O)N(C)[C@@H](CC(C)C)C(=O)N(C)[C@@H](CC(C)C)C(=O)N(C)[C@@H](C(C)C)C(=O)N1C [voclosporin],CRR,"lupus nephritis; at one year, placebo 22.5%",40.8%
belimumab: approved in the US for the treatment of LN,CRR,"lupus nephritis; at two years, placebo 20.0%",30.0%
